Experiment [1] deals with Dual specificity tyrosine-phosphorylation-regulated kinase 1A (Homo sapiens, UniProt Q13627). The experiment can be described thus: Inhibition of human recombinant GST-fusion DYRK1A expressed in Escherichia coli.
The target of experiment [2] is Glycogen synthase kinase-3 (Sus scrofa, UniProt B2LUN4+I6LNT8). The experiment can be described thus: Inhibition of pig GSK3alpha/beta.
Experiment [3] deals with Cyclin-dependent kinase 5/CDK5 activator 1 (Homo sapiens, UniProt Q00535). Kind of experiment: Inhibition of human recombinant CDK5/P25 by scintillation counting. The experiment is classed as protein-complex assay.
Chain of Cyclin-dependent kinase 5/CDK5 activator 1 (Q00535 whole entry): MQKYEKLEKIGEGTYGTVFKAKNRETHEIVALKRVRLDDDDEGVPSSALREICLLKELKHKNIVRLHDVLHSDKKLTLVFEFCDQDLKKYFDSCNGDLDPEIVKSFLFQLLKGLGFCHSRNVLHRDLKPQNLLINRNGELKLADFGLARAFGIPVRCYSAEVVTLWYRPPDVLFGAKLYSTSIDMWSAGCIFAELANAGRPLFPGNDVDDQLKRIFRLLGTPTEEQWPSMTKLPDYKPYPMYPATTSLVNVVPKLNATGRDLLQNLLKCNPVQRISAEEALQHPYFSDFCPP
Chain of Cyclin-dependent kinase 5/CDK5 activator 1 (Q15078 whole entry, further chain): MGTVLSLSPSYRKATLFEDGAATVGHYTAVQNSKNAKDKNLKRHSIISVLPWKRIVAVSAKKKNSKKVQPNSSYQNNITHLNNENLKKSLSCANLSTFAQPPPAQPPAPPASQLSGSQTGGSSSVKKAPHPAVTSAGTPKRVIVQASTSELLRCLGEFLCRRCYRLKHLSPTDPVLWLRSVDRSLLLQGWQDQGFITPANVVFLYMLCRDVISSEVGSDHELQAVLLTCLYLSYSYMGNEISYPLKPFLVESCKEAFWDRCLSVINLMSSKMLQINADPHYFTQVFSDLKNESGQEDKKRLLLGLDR

On to `CC(=O)n1nc(N)c2c(-c3ccccc3)c(C#N)c(N)nc21`, for which the IC50 in experiment [1], in experiment [2] and in experiment [3] was greater than 10 µM each time.
For `N#Cc1cc2c(N)n(-c3ccccc3)nc2nc1N`, the IC50 in experiment [1], in experiment [2] and in experiment [3] was greater than 10 µM throughout.
In the case of `N#Cc1c(N2CCOCC2)nc2[nH]nc(N)c2c1-c1ccccc1`, the IC50 in experiment [1], in experiment [2] and in experiment [3] was greater than 10 µM each time.
Take `CC(=O)Nc1nn(C)c2nc(N)c(C#N)c(-c3ccccc3)c12`: the IC50 in experiment [1], in experiment [2] and in experiment [3] was greater than 10 µM throughout.
In the case of `Cn1nc(N)c2c(-c3ccccc3)c(C#N)c(N)nc21`, the IC50 in experiment [1], in experiment [2] and in experiment [3] was greater than 10 µM in each case.
Regarding `N#Cc1c(N)nc2[nH]nc(N)c2c1-c1ccccc1`, the IC50 in experiment [1] was 11 µM; in experiment [2], 1.5 µM; in experiment [3], 0.41 µM.
As for `CC(=O)Nc1nc2[nH]nc(NC(C)=O)c2cc1C#N`, the IC50 in experiment [1], in experiment [2] and in experiment [3] was greater than 10 µM in each case.
For `CC(=O)Nc1nn(C)c2nc(N)c(C#N)cc12`, the IC50 in experiment [1], in experiment [2] and in experiment [3] was greater than 10 µM throughout.
For the compound `COc1nc(NNC(C)=O)c(C#N)c(-c2ccccc2)c1C#N`, the IC50 in experiment [1], in experiment [2] and in experiment [3] was greater than 10 µM each time.
Regarding `N#Cc1cc2c(N)n[nH]c2nc1N`, the IC50 in experiment [1], in experiment [2] and in experiment [3] was greater than 10 µM each time.
Regarding `Cn1nc(N)c2cc(C#N)c(N)nc21`, the IC50 in experiment [1], in experiment [2] and in experiment [3] was greater than 10 µM in each case.
Regarding `COc1nc(NN)c(C#N)c(-c2ccccc2)c1C#N`, the IC50 in experiment [1], in experiment [2] and in experiment [3] was greater than 10 µM each time.
In the case of `CC(=O)Nc1nc2nn(-c3ccccc3)c(NC(C)=O)c2cc1C#N`, the IC50 in experiment [1], in experiment [2] and in experiment [3] was greater than 10 µM in each case.
Consider `N#Cc1c(Cl)nc2[nH]nc(N)c2c1-c1ccccc1`, for which the IC50 in experiment [1], in experiment [2] and in experiment [3] was greater than 10 µM each time.

Source of the values: ChEMBL document CHEMBL1153477, “Synthesis and biological evaluation of 3,6-diamino-1H-pyrazolo[3,4-b]pyridine derivatives as protein kinase inhibitors” (Bioorg Med Chem Lett, 2009).
